26 molecules from PubChem BioAssay AID1419 (Emory University Molecular Libraries Screening Center, 2008) can be followed below.

This test in a line: EBV protein-peptide binding inhibitors, dose response, biochemical, fluorescence polarization (AID 1419). Particulars: cell-free protein-peptide binding, 2 h; for fold change: measured here: P channel fold over control, at 54 µM.

Active and inactive are the calls of the source. How the calls were made is not given here. A value given as a limit tells only on which side of the number the result lay.

As usually defined, the IC50 is the concentration at which inhibition is half-maximal. Take `CCN1CC=C2C(C#N)=C(N)C(C#N)(C#N)C(c3cc(Cl)ccc3Cl)C2C1` (configuration not stated): the IC50 was > 54 µM (inactive) and the fold change was found to be 4.31.
On to `CCOc1ccc2[nH]c(=O)c(CN(CC3COCCO3)C(=O)C3CC3)cc2c1` (configuration not stated), for which the IC50 was > 54 µM (inactive) and the fold change came to 1.04.
`CC(=O)c1ccc(Nc2c3c(nc4ccccc24)CCCC3)cc1`: the IC50 is > 54 µM (inactive) and the fold change came to 0.95.
Take `COCCCn1c(=NC(=O)c2ccccc2)c(C#N)cc2c(=O)n3cccc(C)c3nc21`: the IC50 was 3.88 µM and the fold change turned out to be 4.43.
Taken in the same sequence, the figures for `Cc1nc(NC(=O)c2ccccc2)sc1-c1csc(Nc2ccc(C(=O)O)cc2)n1` were 2.31 µM and 0.97.
Taken in the same sequence, the figures for `O=C(N/N=C/c1ccc(Cl)cc1)c1nc2ccc([N+](=O)[O-])cc2c(=O)[nH]1` were > 54 µM (inactive) and 1.04.
Consider `Cc1c(C(=O)NCCSCc2c(F)cccc2Cl)cnn1-c1ccc(Cl)cc1`, for which the IC50 was > 54 µM (inactive) and the fold change was 1.06.
Take `CCN(CC)c1ccc2cc(-c3nc(-c4ccc(OC)cc4)cs3)c(=O)oc2c1`: the IC50 is < 0.42 µM and the fold change was found to be 58.
Consider `O=C(Cc1nc2ccccc2[nH]c1=O)c1ccccc1`, for which the IC50 is 9.54 µM and the fold change was 5.07.
For the molecule `Cc1ccc2oc(=O)c(/C=C(\O)c3ccccc3)nc2c1`, the IC50 was 35.4 µM (inactive) and the fold change was determined as 2.39.
Taken in the same sequence, the figures for `O=C1c2cccc3c([N+](=O)[O-])ccc(c23)C(=O)N1Cc1cccnc1` were > 54 µM (inactive) and 5.08.
As for `CCn1nc(-c2ccccc2)nc2c(=O)n(C)c(=O)nc1-2`, the half-maximal inhibitory concentration (IC50) was 4.3 µM and the fold change came out at 4.56.
Regarding `CCCn1c(=C(C#N)C#N)s/c(=C2\C=Cc3ccccc3N2CC)c1=O`, the IC50 is > 54 µM (inactive) and the fold change was determined as 1.52.
`CS(=O)(=O)n1nc(-c2ccc(Cl)cc2)nc1SCc1ccccc1`: the IC50 was > 54 µM (inactive) and the fold change is 1.16.
Taken in the same sequence, the figures for `O=C1CCCC2=C1Sc1ccc(Cl)cc1N2` were 5.79 µM and 2.69.
Regarding `CC1=CC(=C(C#N)c2nc3ccccc3s2)C=C(C)N1Cc1ccco1`, the 50% inhibitory concentration (IC50) was 3.8 µM and the fold change worked out at 15.7.
`Cc1c(N2C(=O)c3ccc4c5c(ccc(c35)C2=O)CC4)c(=O)n(-c2ccccc2)n1C`: the IC50 was > 54 µM (inactive) and the fold change is 1.19.
As to `Cc1cc([N+](=O)[O-])ccc1-c1ccc(/C=N/NC(=O)Cc2ccccc2)o1`, the half-inhibitory concentration (IC50) was 6.04 µM and the fold change turned out to be 10.6.
With `O=[N+]([O-])c1ccc(-c2nc3ccc([N+](=O)[O-])cc3[nH]2)cc1`, the IC50 is > 54 µM (inactive) and the fold change worked out at 1.04.
Consider `CCOc1cc(Br)c(Br)c(C=Nc2ccc(NC(C)=O)cc2)c1O`, for which the concentration for half-maximal inhibition (IC50) was 1.93 µM and the fold change is 8.05.
For `CC1CCc2c(sc3nc(CN4CCOCC4)nc(NS(=O)(=O)c4cccc([N+](=O)[O-])c4)c23)C1` (configuration not stated), the IC50 was > 54 µM (inactive) and the fold change is 1.13.
As for `CCOc1ccc2nc(N3CCCN(C(=O)Nc4ccccc4C)CC3)c(C#N)cc2c1`, the half-maximal inhibitory concentration (IC50) is 8.65 µM and the fold change was found to be 8.56.
For the molecule `CCOC(=O)N1CCC(Nc2nc3ccccc3nc2NS(=O)(=O)c2ccc(Cl)cc2)CC1`, the IC50 was > 54 µM (inactive) and the fold change was 1.39.
As to `Cn1c(-c2ccc(C=O)s2)nc2c3ccccc3c3ccccc3c21`, the half-inhibitory concentration (IC50) was 4.07 µM and the fold change amounted to 14.6.
As to `COc1ccc(OC)c(/C=C2\SC(=S)N(Cc3cccnc3)C2=O)c1`, the IC50 is 6.71 µM and the fold change was found to be 5.16.
For `CN1/C(=C/C=C(C#N)C#N)C(C)(C)c2ccccc21`, the IC50 is > 54 µM (inactive) and the fold change was determined as 1.64.
